Test results taken from publication PMC11930985 (Nature Communications, 2025).

Legend:
AML/MDS patients = assay: Dose-limiting toxicity assessment, 3+3 dose escalation; type: in vivo
Text: The study consisted of a phase 1b dose escalation, followed by a phase 2a cohort expansion. […] Due to the introduction of an enhanced formulation, the study was extended with a second dose escalation cohort following a 3 + 3 study design, also with expansion at the selected dose (Fig. 1).
The conventional 3 + 3 study design gives a 71% chance of escalation if the true but unknown rate of DLT is 20%, and <50% chance of escalation if the true but unknown rate of DLT is >30%. […] Based on a one-sided, within-group test of proportions comparing an anticipated ORR of >20% against the null hypothesis rate of 5%, with power 80% and type I error 0.2 (suitable as evidence of a trend worthy of future study), a sample size of up to 14 evaluable patients was selected for B2. On the same basis, for B5 an initial sample size of 14 relapsed and 14 refractory AML patients was planned. However, upon regulatory review by the FDA, this was reduced to 20 R/R AML patients with 4 refractory AML patients. For this early-stage study, the efficacy analyses are secondary endpoints, and no account was taken of the multiplicity inherent in the assessment of several, presumably non-independent criteria, for ORR.

Flt1 = molecular target: Flt1; parameters: method as in Investigator's Brochure (IB) version 5.0; conditions: ref Investigator's Brochure (IB) version 5.0; cited from earlier work
Flt4 = molecular target: Flt4; parameters: method as in Investigator's Brochure (IB) version 5.0; conditions: ref Investigator's Brochure (IB) version 5.0; cited from earlier work
Ret = test system: Ret; parameters: method as in Investigator's Brochure (IB) version 5.0; conditions: ref Investigator's Brochure (IB) version 5.0; cited from earlier work
Yes = test system: Yes; parameters: method as in Investigator's Brochure (IB) version 5.0; conditions: ref Investigator's Brochure (IB) version 5.0; cited from earlier work
[1] = parameters: method as in Protocol BGBC001; conditions: ref Protocol BGBC001, cited from earlier work

For `Nc1nc(Nc2ccc3c(c2)CC[C@@H](N2CCCC2)CC3)nn1-c1cc2c(nn1)-c1ccccc1CCC2` [Bemcentinib], the “Formal criteria for a maximum tolerated dose” value (AML/MDS patients; DE cohort) was “not met”, the “Recommended phase 2 dose (loading/maintenance)” value (AML/MDS patients; human, in vivo, 3 weeks) was 400/200 and the “Dose-limiting toxicities (DLT) observed” value (AML/MDS patients; in vivo) was “Three”. For the same molecule, the Kd (Flt1) was 400 nM, the Kd (Flt4) was 460 nM and the IC50 (Ret) was 38 nM. For the same molecule, the IC50 (Yes) was 43 nM, the t1/2 ([1]; single oral dose, healthy subjects) was greater than 24 h and the “Estimated increase in exposure with food in some subjects” value ([1]; whole milk and buttered toast) was “up to two”.
